# Literature values in patent US20100273186A1, “SPLIT MUTANT HYDROLASE FUSION REPORTER AND USES THEREOF” (Promega Corporation, priority 2007, published 2010).
# Tested on: Photinus pyralis luciferase
Substance,reduction of activity on addition of cyclic AMP dependent protein kinase catalytic subunit (Waud et al.) [%],decrease of activity when phosphorylated (Sala-Newby et al.)
LRRASLG,30,–
"RRFS: Photinus pyralis luciferase mutant, V217R generating site RRFS (SEQ ID NO:11), Sala-Newby et al.",–,up to 80%
